For this experiment, the target named is T1, mouse GOAT (Mus musculus, UniProt P0C7A3).
T1 construct: made in house; host or cells: sf9 insect cells (baculovirus, pFastBac1-mouseGOAT); total membrane fraction, not purified
T1 sequence (P0C7A3 1-435): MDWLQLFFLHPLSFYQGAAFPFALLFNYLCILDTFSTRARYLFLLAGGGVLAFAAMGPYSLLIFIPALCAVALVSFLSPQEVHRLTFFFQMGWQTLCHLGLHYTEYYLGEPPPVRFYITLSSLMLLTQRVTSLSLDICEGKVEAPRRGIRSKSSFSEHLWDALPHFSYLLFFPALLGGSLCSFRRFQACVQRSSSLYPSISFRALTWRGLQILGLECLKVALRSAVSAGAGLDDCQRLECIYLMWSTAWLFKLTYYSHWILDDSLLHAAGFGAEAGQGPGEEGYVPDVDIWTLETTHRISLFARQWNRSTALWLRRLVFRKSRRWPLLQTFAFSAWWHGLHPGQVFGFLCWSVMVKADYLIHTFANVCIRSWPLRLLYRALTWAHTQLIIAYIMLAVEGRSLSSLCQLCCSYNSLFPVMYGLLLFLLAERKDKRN
Nature of the experiment: Acyltransferase assay: inhibition of proghrelin octanoylation by GOAT in sf9 membrane fractions. Particulars: for IC50: sf9 membranes containing mouse GOAT, [3H]octanoyl CoA, proghrelin8His, read-out: IC50 (GOAT, membrane fraction, in-house); for GOAT inhibition in vitro (in words): membrane fractions. In kind it is biochemical. Here is the method:
pFastBac1-mouseGOAT and pGEX-GST-proGhrelin8His plasmid encoding for mouse proghrelin, fused to GST with TEV cleavage site to release proghrelin moiety, was a kind gift from the Brown and Goldstein laboratory. The BL21Gold E. coli chemically competent cells were transformed with the pGEX-GST-proGhrelin8His plasmid and selected on agar plates with ampicillin. A few colonies were used to inoculate 50 mL LB, and cultures were grown overnight at 37 °C. The next morning, 10 mL of overnight culture was used to inoculate 1L LB. A total of 4 flasks with 1L LB each were inoculated with 10 mL of the overnight culture, and bacterial cultures were grown at 37 °C until they reached OD600 ~ 0.6. The cultures were chilled on ice for 30 min and then 0.25 mM of IPTG was added to each culture. The cultures were then moved back to a shaker set to 18 °C and incubated overnight. Cells were harvested and resuspended in 200 mL buffer containing 25 mM Tris-HCl pH 8.0, 150 mM NaCl, 1 mM EDTA and 0.5 mg/mL lysozyme. The cell suspension was sonicated, and cell debris was removed by centrifugation. The soluble fraction was passed through glutathione resin by gravity. The resin was washed with 75 mL of lysis buffer without lysozyme. The GST-proGhrelin8His protein was eluted with lysis buffer without lysozyme, supplemented with 15 mM reduced glutathione, GSH. About 50 mg of target protein, as evaluated by SDS-PAGE, was eluted. The eluate was supplemented with 1 mM DTT and about 7.5 mg of recombinant GST-TEV protease (see below) was added. The solution was incubated at 16 °C overnight to allow complete release of proghrelin8His from GST. Prior to Ni-NTA chromatography, 5 mM CaCl2 was added, and the solution was spun down at 4000× g for 10 min. After elution from Ni-NTA resin, protein solution was dialyzed against buffer containing 10 mM Tris-HCl pH 8.5, 50 mM NaCl, 10% glycerol and 0.01% CHAPS using 3 kDa cutoff membrane with 3 buffer exchanges. The protein was quantified by absorbance at A280 and qualified by SDS-PAGE.
The baculovirus expression of mouse GOAT. DH10Bac E. coli strain (ThermoFisher, Waltham, MA, USA) was transformed with pFastBac1-mouseGOAT plasmid, and Bacmid DNA from 12 white colonies was analyzed by DNA sequencing and PCR reaction. All clones were transfected to sf9 cells and level of mGOAT expression was compared between clones from cells producing P2. The clone with the highest mGOAT expression level was used to produce P3. For membrane isolation, sf9 cells were seeded at 2–4 × 10^6 /mL in total 1 L volume of sf-900 serum-free medium (ThermoFisher) and infected with P3 virus. At day 2 post-infection, cells were harvested and resuspended in 40 mL of buffer containing 50 mM NaPi pH 7.2, 150 mM NaCl, 1 mM EDTA, 100 μM bis (4-nitrophenyl) phosphate, 2.5 μg/mL aprotinin, 10 μg/mL leupeptin, 10 μg/mL pepstatin A. Cell suspension was briefly sonicated and cell debris was removed by centrifugation at 3000× g for 10 min. Membrane fraction was collected from supernatant by centrifugation at 100,000× g for 1 h. Membrane pellet was resuspended in storage buffer (50 mM NaPi pH 7.2, 150 mM NaCl and 10% glycerol) and kept at −80 °C. Acyltransferase assay: The assay conditions included per 50 μL reaction: 50 μg of total sf9 membranes, various (for modality experiment) or fixed (for IC50) concentrations of recombinant proghrelin8His peptide and various concentrations of tested compound (for IC50), 100 μM palmitoyl CoA, 50 mM HEPES pH 7.0 and 1 μM [^3H] octanoyl CoA (~5.5 dpm/fmol—American Radioactive Chemicals). After incubation of the reaction mixture at 37C for 10 min, tubes were placed on ice and 10 μL of 1M HCl was added to each tube. Following the addition of 740 μL of cold quench buffer (50 mM NaPi pH 7.4, 10 mM Imidazole, 150 mM NaCl, 100 μM bis (4-nitrophenyl) phosphate, 1 mM phenylmethylsulfonyl fluoride and 0.1% Triton), 0.2 mL of 50% Ni-NTA slurry was added to each reaction. […]

For the compound `Cc1nc(Cl)nc(N)c1CCC1CCN(C(=O)[C@H](C)NC(=O)c2ccnn2C)CC1` [compound 5], the IC50 is 0.088 µM.
Same read-out and setting: the result for `CNC(=O)c1cccc(Cc2c(C)nc3nonc3c2N)n1` [compound 6, reference compound] reads 0.064 µM.
In the case of `Cc1nc2nonc2c(N)c1CCC1CCN(C(=O)[C@H](C)NC(=O)c2ccnn2C)CC1` [compound 11, (S)-N-(1-(4-(2-(7-amino-5-methyl-[1,2,5]oxadiazolo[3,4-b]pyridin-6-yl)ethyl)pip-eridin-1-yl)-1-oxopropan-2-yl)-1-methyl-1H-pyrazole-5-carboxamide], the “GOAT inhibition in vitro (in words)” value was “as potently as did 5 and 6”; the IC50 came out at 0.084 µM.
With `CCCCOCC(=O)N1CCC(CCc2c(C)nc3nonc3c2N)CC1` [compound 10, 1-(4-(2-(7-amino-5-methyl-[1,2,5]oxadiazolo[3,4-b]pyridin-6-yl)ethyl)piperidin-1-yl)-2-butoxyethan-1-one], the “GOAT inhibition in vitro (in words)” value is “as potently as did 5 and 6”; the IC50 was 0.063 µM.

By IC50 is commonly meant the concentration that inhibits the measured activity by half.

(Values after publication PMC8709388, “In Search of Small Molecules That Selectively Inhibit MBOAT4” (Molecules, 2021).)
